# Experimental data taken from ChEMBL document CHEMBL5465560, “Selectivity Literature for EUbOPEN Chemogenomic Library” (2024).
# Tests used:
# [1] = target: T1, Tyrosine-protein kinase ITK/TSK (Homo sapiens) (UniProt Q08881); experiment: Selectivity interaction (KinomeScan (DiscoverX)) EUB0000229b ITK; conditions: at 10 µM
# T1 sequence (whole entry): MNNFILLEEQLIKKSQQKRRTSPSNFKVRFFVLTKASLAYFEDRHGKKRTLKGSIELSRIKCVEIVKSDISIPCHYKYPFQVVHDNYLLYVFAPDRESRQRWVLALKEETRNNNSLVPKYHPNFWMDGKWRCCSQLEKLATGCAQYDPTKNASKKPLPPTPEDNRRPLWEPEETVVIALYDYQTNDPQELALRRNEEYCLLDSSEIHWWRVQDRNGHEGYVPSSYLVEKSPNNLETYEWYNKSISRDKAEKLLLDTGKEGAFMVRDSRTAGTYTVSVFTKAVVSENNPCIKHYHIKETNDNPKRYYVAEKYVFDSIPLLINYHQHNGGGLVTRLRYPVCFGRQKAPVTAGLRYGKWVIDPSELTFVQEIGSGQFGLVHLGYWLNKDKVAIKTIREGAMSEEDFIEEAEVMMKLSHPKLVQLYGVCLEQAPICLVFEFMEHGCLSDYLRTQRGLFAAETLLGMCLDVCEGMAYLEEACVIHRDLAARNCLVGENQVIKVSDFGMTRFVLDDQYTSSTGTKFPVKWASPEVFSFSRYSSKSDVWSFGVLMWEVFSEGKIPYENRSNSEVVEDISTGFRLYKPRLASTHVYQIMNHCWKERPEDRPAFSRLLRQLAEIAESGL
# [2] = target: T2, Alpha-2A adrenergic receptor (Homo sapiens) (UniProt P08913); experiment: Selectivity interaction (GPCR panel (PDSP screen)) EUB0001079a ADRA2A; conditions: at 10 µM
# T2 sequence (whole entry): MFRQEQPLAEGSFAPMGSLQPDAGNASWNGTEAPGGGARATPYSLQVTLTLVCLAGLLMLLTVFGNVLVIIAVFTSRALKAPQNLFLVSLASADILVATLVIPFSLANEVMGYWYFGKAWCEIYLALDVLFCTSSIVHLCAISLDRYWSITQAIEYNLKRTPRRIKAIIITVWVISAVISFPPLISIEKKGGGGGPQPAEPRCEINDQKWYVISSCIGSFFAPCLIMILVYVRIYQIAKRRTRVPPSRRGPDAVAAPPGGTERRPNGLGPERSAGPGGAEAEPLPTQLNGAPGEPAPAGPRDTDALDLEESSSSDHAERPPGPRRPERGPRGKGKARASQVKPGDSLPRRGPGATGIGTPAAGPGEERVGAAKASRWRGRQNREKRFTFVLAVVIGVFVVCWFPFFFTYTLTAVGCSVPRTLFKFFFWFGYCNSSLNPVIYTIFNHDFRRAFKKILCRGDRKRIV
# [3] = target: Polycomb protein SUZ12 (Homo sapiens) (UniProt Q15022); experiment: Selectivity interaction (Methyltransferase screen (radiometric assays, panel of 8 PRMTs, 21 protein lysine methyltransferases, 3 DNA methyltransferases, and one RNA methyltransferase)) EUB0000272b SUZ12
# Polycomb protein SUZ12 (Homo sapiens), sequence (Q15022 whole entry): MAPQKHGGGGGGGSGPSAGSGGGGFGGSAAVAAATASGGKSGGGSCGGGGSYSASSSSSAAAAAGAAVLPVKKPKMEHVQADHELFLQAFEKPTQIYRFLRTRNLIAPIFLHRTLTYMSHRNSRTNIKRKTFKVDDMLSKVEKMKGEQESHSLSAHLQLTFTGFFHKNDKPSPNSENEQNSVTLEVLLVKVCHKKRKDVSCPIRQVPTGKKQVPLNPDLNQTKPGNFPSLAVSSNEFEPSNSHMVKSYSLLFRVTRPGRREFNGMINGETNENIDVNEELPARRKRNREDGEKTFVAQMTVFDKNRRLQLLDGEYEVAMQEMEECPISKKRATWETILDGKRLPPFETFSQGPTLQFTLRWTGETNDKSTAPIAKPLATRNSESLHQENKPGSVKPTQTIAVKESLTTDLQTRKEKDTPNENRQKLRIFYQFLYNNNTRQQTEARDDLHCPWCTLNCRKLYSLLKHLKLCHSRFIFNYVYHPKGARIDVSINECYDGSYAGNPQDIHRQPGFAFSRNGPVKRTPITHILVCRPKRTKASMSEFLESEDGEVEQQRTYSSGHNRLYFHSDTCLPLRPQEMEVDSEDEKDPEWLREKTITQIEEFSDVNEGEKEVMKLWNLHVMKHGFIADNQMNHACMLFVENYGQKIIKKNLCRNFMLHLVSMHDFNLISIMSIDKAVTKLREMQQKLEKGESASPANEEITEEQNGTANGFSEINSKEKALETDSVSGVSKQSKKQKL
# [4] = target: Platelet-derived growth factor receptor alpha (Homo sapiens, UniProt P16234); experiment: Selectivity interaction (KinomeScan (DiscoverX)) EUB0000666a PDGFRA; conditions: at 10 µM
# Platelet-derived growth factor receptor alpha, sequence (P16234 whole entry): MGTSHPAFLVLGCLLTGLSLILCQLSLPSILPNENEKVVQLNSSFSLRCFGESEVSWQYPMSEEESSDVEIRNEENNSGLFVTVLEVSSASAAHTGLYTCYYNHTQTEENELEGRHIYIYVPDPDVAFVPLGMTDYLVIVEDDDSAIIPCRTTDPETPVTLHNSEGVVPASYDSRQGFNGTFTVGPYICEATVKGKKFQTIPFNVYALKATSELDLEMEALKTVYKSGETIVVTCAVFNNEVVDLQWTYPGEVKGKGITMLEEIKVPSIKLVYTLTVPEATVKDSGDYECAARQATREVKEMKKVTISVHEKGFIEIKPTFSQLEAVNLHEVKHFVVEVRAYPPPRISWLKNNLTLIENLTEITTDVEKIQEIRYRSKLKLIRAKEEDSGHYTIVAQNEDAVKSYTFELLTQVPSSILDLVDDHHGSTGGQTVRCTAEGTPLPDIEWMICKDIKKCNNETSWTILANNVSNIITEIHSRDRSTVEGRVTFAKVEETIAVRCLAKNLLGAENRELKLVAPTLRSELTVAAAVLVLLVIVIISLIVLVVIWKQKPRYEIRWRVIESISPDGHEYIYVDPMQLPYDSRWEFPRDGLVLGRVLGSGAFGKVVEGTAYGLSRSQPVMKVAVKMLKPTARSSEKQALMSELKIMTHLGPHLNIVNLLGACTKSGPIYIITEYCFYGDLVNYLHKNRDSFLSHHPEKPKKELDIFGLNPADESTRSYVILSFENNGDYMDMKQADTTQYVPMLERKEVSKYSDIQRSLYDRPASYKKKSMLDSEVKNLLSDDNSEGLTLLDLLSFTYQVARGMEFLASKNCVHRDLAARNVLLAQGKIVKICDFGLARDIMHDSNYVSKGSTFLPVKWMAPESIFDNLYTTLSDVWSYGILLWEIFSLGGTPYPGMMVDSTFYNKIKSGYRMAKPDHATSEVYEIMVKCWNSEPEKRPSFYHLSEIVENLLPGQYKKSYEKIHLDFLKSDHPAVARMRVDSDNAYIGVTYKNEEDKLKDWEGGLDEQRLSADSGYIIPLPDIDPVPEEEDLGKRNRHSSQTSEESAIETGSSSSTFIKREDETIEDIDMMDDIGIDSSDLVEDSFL
# [5] = target: Protein kinase C beta type (Homo sapiens, UniProt P05771); experiment: Selectivity interaction (Millipore kinase profiler) EUB0000124b PRKCB; conditions: at 10 µM
# Protein kinase C beta type, sequence (P05771 2-671 limits assumed): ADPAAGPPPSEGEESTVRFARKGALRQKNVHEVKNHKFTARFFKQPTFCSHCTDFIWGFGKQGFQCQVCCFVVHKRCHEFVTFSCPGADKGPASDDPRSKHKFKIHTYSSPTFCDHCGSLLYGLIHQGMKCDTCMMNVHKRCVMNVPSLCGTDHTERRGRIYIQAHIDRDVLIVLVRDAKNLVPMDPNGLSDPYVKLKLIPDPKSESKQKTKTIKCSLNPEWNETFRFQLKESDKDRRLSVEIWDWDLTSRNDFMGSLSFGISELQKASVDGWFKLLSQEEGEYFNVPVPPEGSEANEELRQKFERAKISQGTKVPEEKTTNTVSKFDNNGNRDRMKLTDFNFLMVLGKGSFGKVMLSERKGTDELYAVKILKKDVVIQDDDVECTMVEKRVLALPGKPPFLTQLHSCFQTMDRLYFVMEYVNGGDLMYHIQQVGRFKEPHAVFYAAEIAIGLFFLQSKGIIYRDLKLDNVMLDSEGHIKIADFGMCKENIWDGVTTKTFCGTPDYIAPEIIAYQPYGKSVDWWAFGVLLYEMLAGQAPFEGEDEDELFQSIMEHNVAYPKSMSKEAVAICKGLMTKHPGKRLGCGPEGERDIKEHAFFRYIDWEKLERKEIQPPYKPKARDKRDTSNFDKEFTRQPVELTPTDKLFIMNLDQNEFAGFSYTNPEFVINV
# [6] = target: Dual specificity protein kinase CLK2 (Homo sapiens, UniProt P49760); experiment: Selectivity interaction (KinomeScan (DiscoverX)) EUB0000607a CLK2; conditions: at 10 µM
# Dual specificity protein kinase CLK2, sequence (P49760 whole entry, looked up): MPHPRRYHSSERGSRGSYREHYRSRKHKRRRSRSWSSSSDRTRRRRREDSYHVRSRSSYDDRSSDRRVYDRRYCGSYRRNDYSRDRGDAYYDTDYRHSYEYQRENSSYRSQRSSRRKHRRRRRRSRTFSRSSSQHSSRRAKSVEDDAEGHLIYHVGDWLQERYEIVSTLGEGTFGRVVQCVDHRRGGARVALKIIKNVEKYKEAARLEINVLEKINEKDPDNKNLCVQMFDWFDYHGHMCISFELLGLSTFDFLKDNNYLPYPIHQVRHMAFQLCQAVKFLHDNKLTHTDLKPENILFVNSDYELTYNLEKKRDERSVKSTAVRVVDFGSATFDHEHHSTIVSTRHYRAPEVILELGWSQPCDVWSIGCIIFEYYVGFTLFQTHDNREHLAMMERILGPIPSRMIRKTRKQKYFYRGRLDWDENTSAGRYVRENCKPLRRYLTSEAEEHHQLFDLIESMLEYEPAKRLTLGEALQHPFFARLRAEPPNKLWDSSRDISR
# [7] = target: T3, Mitogen-activated protein kinase kinase kinase 2 (Homo sapiens) (UniProt Q9Y2U5); experiment: Selectivity interaction (KinomeScan (DiscoverX)) EUB0000607a MAP3K2; conditions: at 10 µM
# T3 sequence (whole entry): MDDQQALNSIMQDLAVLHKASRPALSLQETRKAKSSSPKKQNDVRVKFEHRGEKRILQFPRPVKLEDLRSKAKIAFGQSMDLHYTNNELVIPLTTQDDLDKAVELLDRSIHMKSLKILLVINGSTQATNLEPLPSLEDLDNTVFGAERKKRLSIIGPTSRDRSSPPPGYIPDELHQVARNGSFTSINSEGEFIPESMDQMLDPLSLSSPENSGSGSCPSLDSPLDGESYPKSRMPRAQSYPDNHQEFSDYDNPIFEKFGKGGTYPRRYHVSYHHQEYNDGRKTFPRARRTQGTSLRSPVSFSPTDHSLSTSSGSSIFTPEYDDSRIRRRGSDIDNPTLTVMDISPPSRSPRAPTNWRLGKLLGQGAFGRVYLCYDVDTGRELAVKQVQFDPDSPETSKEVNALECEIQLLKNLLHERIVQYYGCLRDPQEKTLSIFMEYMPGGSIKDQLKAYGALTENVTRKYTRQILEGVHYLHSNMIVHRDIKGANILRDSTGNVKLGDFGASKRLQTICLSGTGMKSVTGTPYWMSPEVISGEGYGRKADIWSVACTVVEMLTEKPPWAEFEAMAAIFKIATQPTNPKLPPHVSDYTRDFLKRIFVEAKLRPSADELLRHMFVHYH
# [8] = target: T4, Dual specificity mitogen-activated protein kinase kinase 6 (Homo sapiens) (UniProt P52564); experiment: Selectivity interaction (Kinase panel (Invitrogen)) EUB0000639a MAP2K6; conditions: at 200 nM
# T4 sequence (whole entry): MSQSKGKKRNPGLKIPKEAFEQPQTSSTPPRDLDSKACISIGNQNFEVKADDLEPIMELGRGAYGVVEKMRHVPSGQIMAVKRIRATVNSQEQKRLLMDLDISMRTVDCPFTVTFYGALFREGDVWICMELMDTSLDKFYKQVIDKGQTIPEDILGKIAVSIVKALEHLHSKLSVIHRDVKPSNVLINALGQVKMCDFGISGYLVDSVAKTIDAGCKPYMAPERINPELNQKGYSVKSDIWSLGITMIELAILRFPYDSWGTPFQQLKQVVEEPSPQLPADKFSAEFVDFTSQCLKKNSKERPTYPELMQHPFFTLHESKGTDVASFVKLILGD
# [9] = target: Mitogen-activated protein kinase 14 (Homo sapiens, UniProt Q16539); experiment: Selectivity interaction (ActivX KiNativ screen (kinase selectivity in THP-1 cell lysates)) EUB0000639a MAPK14; type: subcellular; conditions: lysate, at 0.2 µM
# Mitogen-activated protein kinase 14, sequence (Q16539 whole entry): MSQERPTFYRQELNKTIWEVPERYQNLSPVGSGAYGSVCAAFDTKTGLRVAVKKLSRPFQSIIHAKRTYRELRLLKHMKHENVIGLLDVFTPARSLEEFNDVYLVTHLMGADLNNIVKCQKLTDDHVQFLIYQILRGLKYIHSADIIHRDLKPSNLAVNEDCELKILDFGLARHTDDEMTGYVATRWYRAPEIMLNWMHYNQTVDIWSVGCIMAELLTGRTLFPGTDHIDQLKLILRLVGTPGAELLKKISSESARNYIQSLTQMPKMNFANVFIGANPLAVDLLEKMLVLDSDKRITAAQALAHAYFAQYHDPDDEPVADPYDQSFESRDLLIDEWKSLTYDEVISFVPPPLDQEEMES
smiles,measurement,setting,value
COc1cc(N(C)c2ccnc3ccc(C(F)(F)F)cc23)cc(OC)c1OC,% binding,[1],94%
Nc1cnc(N2CCc3cc(S(=O)(=O)Nc4c(F)cc(Cl)cc4F)cc(N4CCCC4=O)c32)nc1 [TP-020n],% of inhibition,[2],-10.1%
Cc1cc(C)cc([C@H]2c3cc(C)ccc3NC(=O)CN2C(=O)c2ccc(Br)s2)c1,% of activity,[3]; at 1 µM,102%
same,% of activity,[3]; at 10 µM,97.3%
O=C(NOC[C@H](O)CO)c1ccc(F)c(F)c1Nc1ccc(I)cc1F,% of control,[4],96%
CC(=O)Nc1cccc(-n2c(=O)n(C3CC3)c(=O)c3c(Nc4ccc(I)cc4F)n(C)c(=O)c(C)c32)c1,% of control,[5],108%
CNC(=O)Nc1ccc(-c2nc(N3CC4CCC(C3)O4)c3cnn(C4CCC5(CC4)OCCO5)c3n2)cc1,% of control,[6],98%
same,% of control,[7],95%
CC[C@@H]1[C@H](F)C(=O)N[C@@H]1COc1nccc2cc(C(N)=O)c(OC)cc12 [ZIMLOVISERTIB],% of inhibition,[8],4.3%
same,% of inhibition,[9],-1.8%
